Experimental findings from patent US12414569B2 (priority 2019, dated 2025) are described below.

The conditions of this series: Citrus sinensis.

The structures appear in SMILES notation.

`Cc1nnc(C)s1` [2,5-Dimethyl-1,3,4-thiadiazole]: the “Distance Traveled” value is recorded as 14 cm.
Take `O=CC=Cc1ccccc1` [Cinnamaldehyde]: the “Distance Traveled” value was 12 cm.
`C=CCSSSCC=C` [Diallyl Trisulfide]: the “Distance Traveled” value turned out to be 26 cm.
Consider `C=CCSSCC=C` [Diallyl disulfide], for which the “Distance Traveled” value is on record as 24 cm.
